Results: patent publication US20090023718A1 (Aton Pharma, Inc., priority 2003, published 2009)

What follows are compounds tested against T1, histone deacetylase, subtype 1 (HDAC1) (Homo sapiens, UniProt Q13547) (assay: HDAC1-Flag assay (in vitro fluorescent deacetylation assay)). Details: Table 1, compounds of formula II; epitope-tagged human HDAC1 complex, substrate at Km; mean ± spread (N); read-out: HDAC Inhibition (IC50) nm.
T1 construct: Flag; made in house
Type: biochemical
Procedure: Novel compounds were tested for their ability to inhibit histone deacetylase, subtype 1 (HDAC1) using an in vitro deacetylation assay. The enzyme source for this assay was an epitope-tagged human HDAC1 complex immuno-purified from stably expressing mammalian cells. The substrate consisted of a commercial product containing an acetylated lysine side chain (BIOMOL Research Laboratories, Inc., Plymouth Meeting, Pa.). Upon deacetylation of the substrate by incubation with the purified HDAC1 complex, a fluorophore is produced that is directly proportional to the level of deacetylation.

T1 sequence (Q13547 whole entry): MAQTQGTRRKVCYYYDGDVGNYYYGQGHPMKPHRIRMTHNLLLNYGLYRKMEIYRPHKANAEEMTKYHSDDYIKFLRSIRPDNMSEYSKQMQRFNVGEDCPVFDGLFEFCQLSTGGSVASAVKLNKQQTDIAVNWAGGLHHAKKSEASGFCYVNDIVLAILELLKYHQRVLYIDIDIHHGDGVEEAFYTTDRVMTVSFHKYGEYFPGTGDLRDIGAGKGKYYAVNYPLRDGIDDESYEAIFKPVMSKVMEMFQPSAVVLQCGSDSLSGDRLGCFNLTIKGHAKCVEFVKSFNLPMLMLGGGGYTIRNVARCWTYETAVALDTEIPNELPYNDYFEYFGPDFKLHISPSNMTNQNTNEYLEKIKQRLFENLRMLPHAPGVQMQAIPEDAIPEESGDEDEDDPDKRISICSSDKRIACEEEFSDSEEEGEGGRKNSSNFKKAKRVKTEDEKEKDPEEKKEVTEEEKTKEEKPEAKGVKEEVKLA

Row | IC50 [nM] | SMILES
1 | 449 ± 40.3 | O=C(CCCCCC(=O)N(CC(=O)Nc1ccccc1Oc1ccccc1)CC(=O)Nc1ccccc1Oc1ccccc1)NO [Compound 26, Heptanedioic acid bis-[(2-phenoxy-phenylcarbamoyl)-methyl]-amide hydroxyamide]
2 | 40 ± 8.4 | O=C(CCCCCC(=O)N(CC(=O)Nc1ccc(N2CCOCC2)cc1)CC(=O)Nc1ccc(N2CCOCC2)cc1)NO [Compound 27, Heptanedioic acid bis-[(4-morpholin-4-yl-phenylcarbamoyl)-methyl]-amide hydroxyamide]
3 | 33 ± 12.7 | Cc1ccc(S(=O)(=O)Nc2ccc(NC(=O)CN(CC(=O)Nc3ccc(NS(=O)(=O)c4ccc(C)cc4)cc3)C(=O)CCCCCC(=O)NO)cc2)cc1 [Compound 28, Heptanedioic acid bis{[4-(toluene-4-sulfonylamino)-phenylcarbamoyl]-methyl}-amide hydroxyamide]
4 | 137 ± 18.3 | O=C(CCCCCC(=O)N(CC(=O)Nc1cccc(Oc2ccccc2)c1)CC(=O)Nc1cccc(Oc2ccccc2)c1)NO [Compound 30, Heptanedioic acid bis-[(3-phenoxy-phenylcarbamoyl)-methyl]-amide hydroxyamide]
5 | 59 ± 18.3 | O=C(CCCCCC(=O)N(CC(=O)Nc1ccc2c(c1)Cc1ccccc1-2)CC(=O)Nc1ccc2c(c1)Cc1ccccc1-2)NO [Compound 31, Heptanedioic acid bis-[(9H-fluoren-2-ylcarbamoyl)-methyl]-amide hydroxyamide]
6 | 152 ± 48.7 | CC(C)(C)c1ccc(NC(=O)CN(CC(=O)Nc2ccc(C(C)(C)C)cc2)C(=O)CCCCCC(=O)NO)cc1 [Compound 32]
7 | 39.5 ± 37.4 | O=C(CCCCCC(=O)N(CC(=O)NCCc1c[nH]c2ccccc12)CC(=O)NCCc1c[nH]c2ccccc12)NO [Compound 33, Heptanedioic acid bis-{[2-(1H-indol-3-yl)-ethylcarbamoyl]-methyl}-amide hydroxyamide]
8 | 84 ± 8.4 | Cn1c(NC(=O)CN(CC(=O)Nc2nc3ccccc3n2C)C(=O)CCCCCC(=O)NO)nc2ccccc21 [Compound 38, Heptanedioic acid bis-[(1-methyl-1H-benzoimidazol-2-ylcarbamoyl)-methyl]-amide hydroxyamide]

Same assay, conditions: Table 2, compounds of formula III; epitope-tagged human HDAC1 complex, substrate at Km; mean ± spread (N); read-out: HDAC Inhibition (IC50) nm

Row | IC50 [nM] | SMILES
9 | 55.5 ± 0.7 | O=C(CCCCCN(CC(=O)NCCc1ccccc1)CC(=O)NCCc1ccccc1)NO [Compound 42, 6-[Bis-(phenethylcarbamoyl-methyl)-amino]-hexanoic acid hydroxyamide]
10 | 86.5 ± 26.1 | O=C(CCCCCCCN(CC(=O)Nc1ccccc1)CC(=O)Nc1ccccc1)NO [Compound 43, 8-(Bis-phenylcarbamoylmethyl-amino)-octanoic acid hydroxyamide]
11 | 133 ± 59.3 | O=C(CCCCN(CC(=O)Nc1ccccc1)CC(=O)Nc1ccccc1)NO [Compound 44, 5-(Bis-phenylcarbamoylmethyl-amino)-pentanoic acid hydroxyamide]
12 | 140 ± 16.2 | O=C(CCCCCN(CC(=O)N1CCN(c2ccccc2)CC1)CC(=O)N1CCN(c2ccccc2)CC1)NO [Compound 45, 6-{Bis-[2-oxo-2-(4-phenyl-piperazin-1-yl)-ethyl]-amino}-hexanoic acid hydroxyamide]
13 | 181 ± 23.3 | O=C(CCCCCCCN(CC(=O)NCc1ccccc1)CC(=O)NCc1ccccc1)NO [Compound 47, 8-[Bis-(benzylcarbamoyl-methyl)-amino]-octanoic acid hydroxyamide]
14 | 187 ± 10.6 | O=C(CCCCCN(CC(=O)NCc1ccccc1)CC(=O)NCc1ccccc1)NO [Compound 48, 6-[Bis-(benzylcarbamoyl-methyl)-amino]-hexanoic acid hydroxyamide]
15 | 191 ± 20.5 | O=C(CCCCCCCN(CC(=O)NCCc1ccccc1)CC(=O)NCCc1ccccc1)NO [Compound 49, 8-[Bis-(phenethylcarbamoyl-methyl)-amino]-octanoic acid hydroxyamide]
16 | 267 ± 32.5 | O=C(CCCCCN(CC(=O)NC1CCCCC1)CC(=O)NC1CCCCC1)NO [Compound 50, 6-(Bis-cyclohexylcarbamoylmethyl-amino)-hexanoic acid hydroxyamide]
17 | 288 ± 53 | CC(C)CNC(=O)CN(CCCCCC(=O)NO)CC(=O)NCC(C)C [Compound 51, 6-[Bis-(isobutylcarbamoyl-methyl)-amino]-hexanoic acid hydroxyamide]
18 | 311 ± 24.7 | O=C(CCCCCN(CC(=O)NCC1CCCCC1)CC(=O)NCC1CCCCC1)NO [Compound 52, 6-{Bis-[(cyclohexylmethyl-carbamoyl)-methyl]-amino}-hexanoic acid hydroxyamide]
19 | 873 ± 57.9 | O=C(CCCCCN(CC(=O)N1CCC(Cc2ccccc2)CC1)CC(=O)N1CCC(Cc2ccccc2)CC1)NO [Compound 53, 6-{Bis-[2-(4-benzyl-piperidin-1-yl)-2-oxo-ethyl]-amino}-hexanoic acid hydroxyamide]
20 | 886 ± 20.5 | O=C(CCCCN(CC(=O)NCCc1ccccc1)CC(=O)NCCc1ccccc1)NO [Compound 54, 5-[Bis-(phenethylcarbamoyl-methyl)-amino]-pentanoic acid hydroxyamide]
21 | 907 ± 60.8 | O=C(CCCCN(CC(=O)NCc1ccccc1)CC(=O)NCc1ccccc1)NO [Compound 55, 5-[Bis-(benzylcarbamoyl-methyl)-amino]-pentanoic acid hydroxyamide]
22 | 2080 ± 383 | O=C(CCCCCN(CC(=O)N1CCCCC1)CC(=O)N1CCCCC1)NO [Compound 56, 6-[Bis-(2-oxo-2-piperidin-1-yl-ethyl)-amino]-hexanoic acid hydroxyamide]
23 | 2280 ± 889 | O=C(CCCCCN(CC(=O)N1CCOCC1)CC(=O)N1CCOCC1)NO [Compound 57, 6-[Bis-(2-morpholin-4-yl-2-oxo-ethyl)-amino]-hexanoic acid hydroxyamide]

Same assay, conditions: Table 3, compounds of formula IV; epitope-tagged human HDAC1 complex, substrate at Km; mean ± spread (N); read-out: HDAC Inhibition (IC50) nm

Row | IC50 [nM] | SMILES
24 | 899 ± 243 | O=C(CCCCC(=O)N(Cc1ccccc1)Cc1ccccc1)NO [Compound 58]
25 | 2590 ± 807 | O=C(CCCCC(=O)N(CCc1ccccc1)Cc1ccccc1)NO [Compound 59]
26 | 387 ± 80.6 | O=C(CCCCCCC(=O)N(CCc1c[nH]c2ccccc12)Cc1ccc(Br)cc1)NO [Compound 60]
27 | 162 ± 88.3 | O=C(CCCCCC(=O)N(CCc1c[nH]c2ccccc12)Cc1ccc(Br)cc1)NO [Compound 61]
28 | 462 ± 51.6 | O=C(CCCCCCC(=O)N(Cc1ccccc1)Cc1ccccc1)NO [Compound 62]
29 | 591 ± 46.6 | O=C(CCCCCCC(=O)N(CCc1ccccc1)Cc1ccccc1)NO [Compound 63]
30 | 434 ± 2.8 | O=C(CCCCCCCCC(=O)N(CCc1ccccc1)Cc1ccccc1)NO [Compound 64]
31 | 301 ± 21.2 | O=C(CCCCCCC(=O)N1CCN(C(=O)OCc2ccccc2)CC1)NO [Compound 65]
32 | 44300 | O=C(CCC(=O)N1CCN(c2ccccc2)CC1)NO [Compound 66]
33 | 16200 | O=C(CCC(=O)N1CCN(c2ccc(Cl)cc2)CC1)NO [Compound 67]
34 | 73300 | O=C(CCC(=O)N1CCN(c2ccccc2Cl)CC1)NO [Compound 68]
35 | 13000 | O=C(CCC(=O)N1CCN(c2cccc(Cl)c2)CC1)NO [Compound 69]
36 | 24000 | CC(=O)c1ccc(N2CCN(C(=O)CCC(=O)NO)CC2)cc1 [Compound 70]
37 | 1220 ± 31.1 | O=C(CCCC(=O)N1CCN(c2ccccc2)CC1)NO [Compound 71, 5-Oxo-5-(4-phenyl-piperazin-1-yl)-pentanoic acid hydroxyamide]
38 | 474 ± 36 | O=C(CCCC(=O)N1CCN(c2cccc(Cl)c2)CC1)NO [Compound 72, 5-[4-(3-Chloro-phenyl)-piperazin-1-yl]-5-oxo-pentanoic acid hydroxyamide]
